Test systems include ACHN renal; CAKI-1 renal; LOX IMVI melanoma; HCC-2998 colon; HOP-62 NSCLC; EKVX NSCLC; OVCAR-3 ovarian; COLO 205 colon; 786-0 renal; MALME-3M melanoma.
Experiment in all cases: growth of human tumour cells (NCI), 48 h

Here are results for 12 compounds from PubChem BioAssay (NCI).

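All cell lines were grown in 96-well plates and treated with compound for 48 hours. Definition used: TGI = concentration required for complete inhibition of growth.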 Where a SMILES comes first, the peptide text is derived from it. [ ]: non-standard residue; d: D form. The star is where a group is joined. X28 = COC1=CC(=O)N(C(=O)[C@@H](O*)C(C)C)[C@H]1Cc1ccccc1; NMeL = CN[C@@H](CC(C)C)C(=O)O; Hexanoyl = CCCCCC(=O)* Where only a bound is given, the exact number is not on record here.

`CC(=O)NC1C(OCC(=O)NC(C)C(=O)NC(CCC(=O)NCCCCCNc2ccc([N+](=O)[O-])c3[nH]c4ccccc4c(=O)c23)C(N)=O)C(O)C(CO)OC1(C)OCc1ccccc1` (stereo not given): the TGI with ACHN renal, with CAKI-1 renal, with LOX IMVI melanoma, with HCC-2998 colon, in the assay on HOP-62 NSCLC and in the assay on EKVX NSCLC was > 50 µM each time. Further, the TGI with OVCAR-3 ovarian was > 50 µM; in the assay on COLO 205 colon, > 50 µM; in the assay on 786-0 renal, > 50 µM; in the assay with MALME-3M melanoma, 26.9 µM.
With `CCC1=C(C)C2=NC1=CC1=NC(=C(CC)/C1=C/O)C=C1N=C3C(=C1C)C(=O)C(C(=O)OC)C3=C1NC(=C2)C(C)C1CCC(=O)OC` (stereo not given), the TGI with ACHN renal, with CAKI-1 renal, in the assay on LOX IMVI melanoma, in the assay on HCC-2998 colon, in the assay on HOP-62 NSCLC and in the assay with EKVX NSCLC was > 100 µM in each case. In addition, the TGI in the assay on OVCAR-3 ovarian, in the assay with COLO 205 colon, in the assay with 786-0 renal and in the assay with MALME-3M melanoma was > 100 µM throughout.
Turning to `S=C1c2cc(Cl)ccc2NC(=NC2CCCC2)C2CSCN12` (stereo not given), the TGI in the assay on ACHN renal, with CAKI-1 renal, with LOX IMVI melanoma, in the assay with HCC-2998 colon, in the assay with HOP-62 NSCLC and in the assay with EKVX NSCLC was > 100 µM each time. Also, the TGI in the assay with OVCAR-3 ovarian, in the assay with COLO 205 colon, in the assay with 786-0 renal and in the assay on MALME-3M melanoma was > 100 µM each time.
For `COCOc1cc(OC)ccc1C=O`, the TGI in the assay on ACHN renal is > 100 µM; in the assay on CAKI-1 renal, > 100 µM; in the assay on LOX IMVI melanoma it was > 100 µM; in the assay with HCC-2998 colon, 71.5 µM; in the assay with HOP-62 NSCLC, > 100 µM; in the assay with EKVX NSCLC, > 100 µM. For the same compound, the TGI with OVCAR-3 ovarian is 63.8 µM; in the assay on COLO 205 colon, 54.2 µM; with 786-0 renal, > 100 µM; in the assay on MALME-3M melanoma, > 100 µM.
With `Cc1nc2c(=O)[nH]c(=O)nc-2n(CCO)c1C`, the TGI with ACHN renal, in the assay with CAKI-1 renal, in the assay on LOX IMVI melanoma, in the assay on HCC-2998 colon, in the assay with HOP-62 NSCLC and in the assay with EKVX NSCLC was > 100 µM in each case. Further, the TGI in the assay on OVCAR-3 ovarian, with COLO 205 colon, with 786-0 renal and in the assay on MALME-3M melanoma was > 100 µM in each case.
Take `c1ccc(COc2nc3ccc(C45CC6CC(CC(C6)C4)C5)cc3[nH]2)cc1`: the TGI with ACHN renal was > 100 µM; in the assay with CAKI-1 renal, > 100 µM; in the assay on LOX IMVI melanoma, 36.5 µM; in the assay with HCC-2998 colon it was 56.4 µM; with HOP-62 NSCLC, > 74.8 µM; in the assay on EKVX NSCLC, > 100 µM. For the same compound, the TGI in the assay with OVCAR-3 ovarian was > 100 µM; with COLO 205 colon, 21.2 µM; in the assay with 786-0 renal, > 100 µM; in the assay with MALME-3M melanoma, 86.1 µM.
For the compound `COc1ccc2c(c1)CC[C@@H]1C2CC[C@]2(C)OC(=O)CCC12` (stereo not given in full), the TGI was > 100 µM in the assay with ACHN renal; > 100 µM in the assay with CAKI-1 renal; 19.4 µM with LOX IMVI melanoma; > 100 µM with HCC-2998 colon; 65.3 µM in the assay on HOP-62 NSCLC; 21.3 µM in the assay with EKVX NSCLC. Moreover, the TGI is 31.4 µM with OVCAR-3 ovarian, > 100 µM with COLO 205 colon, 17.7 µM in the assay on 786-0 renal and 36 µM in the assay with MALME-3M melanoma.
For `COc1ccc2c(c1)CCC(CN1CCN(CCOC(c3ccc(F)cc3)c3ccc(F)cc3)CC1)=C2`, the TGI is > 100 µM in the assay on ACHN renal; > 100 µM in the assay on CAKI-1 renal; 30.3 µM in the assay on LOX IMVI melanoma; 19 µM in the assay on HCC-2998 colon; > 100 µM in the assay with HOP-62 NSCLC; 29.6 µM in the assay with EKVX NSCLC. For the same compound, the TGI in the assay on OVCAR-3 ovarian was found to be 50.6 µM; in the assay on COLO 205 colon, 10.4 µM; in the assay with 786-0 renal, 27.2 µM; in the assay with MALME-3M melanoma, 27.9 µM.
On to `CCCCc1cc2c(cc1O)CCC1C2CC[C@@]2(C)C1CC[C@@H]2O` (stereo not given in full), for which the TGI with ACHN renal was 29.7 µM; with CAKI-1 renal it was 52.6 µM; with LOX IMVI melanoma, 39.3 µM; with HCC-2998 colon, 50.9 µM; in the assay on HOP-62 NSCLC, 57.3 µM; with EKVX NSCLC, 33.6 µM. Further, the TGI in the assay with OVCAR-3 ovarian was 29.7 µM; in the assay with COLO 205 colon, 49.5 µM; in the assay on 786-0 renal it was 73.1 µM; in the assay with MALME-3M melanoma, 39.2 µM.
Regarding `CC1(c2cccc(C3CCC4(C=CC3=O)OCCO4)c2)OCCO1` (stereo not given), the TGI turned out to be 15.5 µM in the assay with ACHN renal; 21.1 µM with CAKI-1 renal; 27.8 µM in the assay with LOX IMVI melanoma; 33.1 µM with HCC-2998 colon; 47.9 µM with HOP-62 NSCLC; 37.5 µM in the assay with EKVX NSCLC. Moreover, the TGI in the assay on OVCAR-3 ovarian came out at 13 µM; in the assay with COLO 205 colon, 18.6 µM; in the assay with 786-0 renal it was 11 µM; in the assay on MALME-3M melanoma, 10.9 µM.
For `CCCCCC(=O)N[C@H](C(=O)N[C@H](C(=O)N(C)[C@@H](CC(C)C)C(=O)N1CCC[C@H]1C(=O)N1CCC[C@H]1C(=O)O[C@H](C(=O)N1C(=O)C=C(OC)[C@@H]1Cc1ccccc1)C(C)C)C(C)C)C(C)C` (Hexanoyl-VV[NMeL]PP-X28), the TGI in the assay with ACHN renal, in the assay on CAKI-1 renal, with LOX IMVI melanoma, in the assay on HCC-2998 colon, in the assay on HOP-62 NSCLC and in the assay with EKVX NSCLC was > 100 µM throughout. Further, the TGI with OVCAR-3 ovarian, with COLO 205 colon, with 786-0 renal and with MALME-3M melanoma was > 100 µM each time.
Regarding `C(=N\NC1=NCCCN1)/c1ccc(-c2cn3cc(/C=N/NC4=NCCCN4)ccc3n2)cc1`, the TGI with ACHN renal, with CAKI-1 renal, in the assay on LOX IMVI melanoma, with HCC-2998 colon, in the assay on HOP-62 NSCLC and in the assay with EKVX NSCLC was > 100 µM each time. The TGI in the assay on OVCAR-3 ovarian was > 100 µM; in the assay on COLO 205 colon, > 100 µM; in the assay on 786-0 renal, > 100 µM; in the assay on MALME-3M melanoma it was 87.4 µM.
